Assay results published in patent publication US9695155B2, “Herbicidal substituted pyrimidinyloxy benzene compounds” (E. I. DU PONT DE NEMOURS AND COMPANY, priority 2013, dated 2017).

Columns and labels:
sedge, umbrella [1] = assay: Test C flooded paddy test; type: in vivo, Cyperus difformis; conditions: Flood, scale 0 to 100 (0 no effect, 100 complete control), 13 to 15 days
Excerpt: (§1) At time of treatment, test pots were flooded to 3 cm above the soil surface, treated by application of test compounds directly to the paddy water, and then maintained at that water depth for the duration of the test. Treated plants and controls were maintained in a greenhouse for 13 to 15 days, after which time all species were compared to controls and visually evaluated. […] A dash (-) response means no test result.

morningglory [2] = assay: Test A postemergence; type: in vivo, Ipomoea spp.
Summary of the method: (§2)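 Scoring: eye-based comparison with untreated controls, 0 for no effect through 100 for complete control, at about day 10. Treatments: directed soil spray preemergence; foliar spray postemergence on 2–10 cm plants at the one- to two-leaf stage. Medium: loam soil with sand.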

Heteranthera limosa = assay: Test B flooded paddy test; type: in vivo; conditions: Flood, 250 g ai/ha; 0 to 100 scale where 0 is no effect and 100 is complete control
Summary of the method: (§3)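 Evaluation is visual, against untreated controls, 13 to 15 days after treatment. Before treatment, plants reached the 2-leaf stage; pots were then flooded 3 cm deep, compound was added to the water, and that level was maintained. Ratings run 0 to 100, with 100 meaning complete control.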

morningglory [3] = assay: Test A preemergence; type: in vivo, Ipomoea spp.
Summary of the method: as §2

sedge, umbrella [4] = assay: Test B flooded paddy test; type: in vivo, Cyperus difformis; conditions: Flood, 250 g ai/ha; 0 to 100 scale where 0 is no effect and 100 is complete control
Summary of the method: as §3

giant foxtail [5] = assay: Test A postemergence; type: in vivo, Setaria faberii
Summary of the method: as §2

ducksalad = assay: Test C flooded paddy test; type: in vivo, Heteranthera limosa; conditions: Flood, scale 0 to 100 (0 no effect, 100 complete control), 13 to 15 days
Excerpt: as §1

barnyardgrass [6] = assay: Test C flooded paddy test; type: in vivo, Echinochloa crus-galli; conditions: Flood, scale 0 to 100 (0 no effect, 100 complete control), 13 to 15 days
Excerpt: as §1

barnyardgrass [7] = assay: Test A postemergence; type: in vivo, Echinochloa crus-galli
Summary of the method: as §2

velvetleaf [8] = assay: Test A postemergence; type: in vivo, Abutilon theophrasti
Summary of the method: as §2

rice [9] = assay: Test C flooded paddy test; type: in vivo, Oryza sativa; conditions: Flood, scale 0 to 100 (0 no effect, 100 complete control), 13 to 15 days
Excerpt: as §1

giant foxtail [10] = assay: Test A preemergence; type: in vivo, Setaria faberii
Summary of the method: as §2

corn [11] = assay: Test A postemergence; type: in vivo, Zea mays
Summary of the method: as §2

pigweed [12] = assay: Test A preemergence; type: in vivo, Amaranthus retroflexus
Summary of the method: as §2

corn [13] = assay: Test A preemergence; type: in vivo, Zea mays
Summary of the method: as §2

barnyardgrass [14] = assay: Test A preemergence; type: in vivo, Echinochloa crus-galli
Summary of the method: as §2

velvetleaf [15] = assay: Test A preemergence; type: in vivo, Abutilon theophrasti
Summary of the method: as §2

barnyardgrass [16] = assay: Test B flooded paddy test; type: in vivo, Echinochloa crus-galli; conditions: Flood, 250 g ai/ha; 0 to 100 scale where 0 is no effect and 100 is complete control
Summary of the method: as §3

wheat [17] = assay: Test A preemergence; type: in vivo, Triticum aestivum
Summary of the method: as §2

pigweed [18] = assay: Test A postemergence; type: in vivo, Amaranthus retroflexus
Summary of the method: as §2

large (Lg) crabgrass [19] = assay: Test A postemergence; type: in vivo, Digitaria sanguinalis
Summary of the method: as §2

wheat [20] = assay: Test A postemergence; type: in vivo, Triticum aestivum
Summary of the method: as §2

large (Lg) crabgrass [21] = assay: Test A preemergence; type: in vivo, Digitaria sanguinalis
Summary of the method: as §2

rice [22] = assay: Test B flooded paddy test; type: in vivo, Oryza sativa; conditions: Flood, 250 g ai/ha; 0 to 100 scale where 0 is no effect and 100 is complete control
Summary of the method: as §3

[23] = 125 g ai/ha, 0 to 100 scale where 0 is no effect and 100 is complete control
[24] = 500 g ai/ha, 0 to 100 scale, 0 no effect, 100 complete control
[25] = 500 g ai/ha, 0 to 100 scale, 0 no effect, 100 complete control, approx. 10 days
[26] = 500 g ai/ha, 0 to 100 scale where 0 is no effect and 100 is complete control

Brc1cnc(Oc2ccccc2-n2cc(Br)cn2)nc1 [Compound 8]
100: Plant response rating, Morningglory (morningglory [2]; [24]) | Plant response rating, Ducksalad (Heteranthera limosa) | Plant response rating, Velvetleaf (velvetleaf [8]; [23]) | Plant response rating, Velvetleaf (velvetleaf [8]; [24]) | Foxtail, Giant plant response rating (giant foxtail [10]; [25]) | Pigweed plant response rating (pigweed [12]; [25]) | Velvetleaf plant response rating (velvetleaf [15]; [23]) | Velvetleaf plant response rating (velvetleaf [15]; [25]) | Plant response rating, Pigweed (pigweed [18]; [23]) | Plant response rating, Pigweed (pigweed [18]; [24]) | Crabgrass, Large plant response rating (large (Lg) crabgrass [21]; [25])
80: Plant response rating, Sedge, Umbrella (sedge, umbrella [4]) | Crabgrass, Large plant response rating (large (Lg) crabgrass [21]; [23])
30: Morningglory plant response rating (morningglory [3]; [25]) | Plant response rating, Barnyardgrass (barnyardgrass [7]; [23]) | Plant response rating, Corn (corn [11]; [24]) | Plant response rating, Rice (rice [22])
85: Plant response rating, Sedge, Umbrella (sedge, umbrella [1]; 250 g ai/ha)
70: Plant response rating, Morningglory (morningglory [2]; [23]) | Plant response rating, Ducksalad (ducksalad; 250 g ai/ha) | Foxtail, Giant plant response rating (giant foxtail [10]; [23])
10: Plant response rating, Rice (rice [9]; 125 g ai/ha) | Plant response rating, Rice (rice [9]; 250 g ai/ha)
0: Plant response rating, Sedge, Umbrella (sedge, umbrella [1]; 31 g ai/ha) | Plant response rating, Ducksalad (ducksalad; 31 g ai/ha) | Plant response rating, Barnyardgrass (barnyardgrass [6]; 31 g ai/ha) | Plant response rating, Barnyardgrass (barnyardgrass [6]; 62 g ai/ha) | Plant response rating, Barnyardgrass (barnyardgrass [6]; 125 g ai/ha) | Plant response rating, Barnyardgrass (barnyardgrass [6]; 250 g ai/ha) | Plant response rating, Rice (rice [9]; 31 g ai/ha) | Plant response rating, Rice (rice [9]; 62 g ai/ha) | Plant response rating, Corn (corn [11]; [23]) | Corn plant response rating (corn [13]; [23]) | Corn plant response rating (corn [13]; [25]) | Plant response rating, Barnyardgrass (barnyardgrass [16]) | Wheat plant response rating (wheat [17]; [23]) | Wheat plant response rating (wheat [17]; [25]) | Plant response rating, Wheat (wheat [20]; [23])
90: Plant response rating, Foxtail, Giant (giant foxtail [5]; [24]) | Plant response rating, Barnyardgrass (barnyardgrass [7]; [24]) | Pigweed plant response rating (pigweed [12]; [23]) | Barnyardgrass plant response rating (barnyardgrass [14]; [25]) | Plant response rating, Crabgrass, Large (large (Lg) crabgrass [19]; [24])
20: Morningglory plant response rating (morningglory [3]; [23]) | Plant response rating, Wheat (wheat [20]; [24])
40: Plant response rating, Ducksalad (ducksalad; 62 g ai/ha)
75: Plant response rating, Sedge, Umbrella (sedge, umbrella [1]; 125 g ai/ha)
50: Plant response rating, Sedge, Umbrella (sedge, umbrella [1]; 62 g ai/ha) | Plant response rating, Foxtail, Giant (giant foxtail [5]; [23]) | Plant response rating, Ducksalad (ducksalad; 125 g ai/ha) | Barnyardgrass plant response rating (barnyardgrass [14]; [23]) | Plant response rating, Crabgrass, Large (large (Lg) crabgrass [19]; [23])

FC(F)c1cccc(Oc2ncc(Br)cn2)c1-n1cc(I)cn1 [Compound 185]
20: Plant response rating, Corn (corn [11]; [26])
40: Plant response rating, Ducksalad (ducksalad; 250 g ai/ha) | Barnyardgrass plant response rating (0 to 100 scale, 0 is no effect, 100 is complete control) (barnyardgrass [14]; 125 g ai/ha) | Velvetleaf plant response rating (0 to 100 scale) (velvetleaf [15]; 125 g ai/ha) | Plant response rating, Wheat (wheat [20]; [26])
15: Plant response rating, Rice (rice [9]; 250 g ai/ha)
90: Plant response rating, Morningglory (morningglory [2]; [26]) | Plant response rating, Sedge, Umbrella (sedge, umbrella [4]) | Velvetleaf plant response rating (velvetleaf [8]; [23]) | Foxtail, Giant plant response rating (0 to 100 scale) (giant foxtail [10]; 125 g ai/ha) | Plant response rating, Crabgrass, Large (large (Lg) crabgrass [19]; [26]) | Crabgrass, Large plant response rating (0 to 100 scale) (large (Lg) crabgrass [21]; 125 g ai/ha)
100: Plant response rating, Velvetleaf (velvetleaf [8]; [26]) | Foxtail, Giant plant response rating (giant foxtail [10]; [26]) | Pigweed plant response rating (0 to 100 scale) (pigweed [12]; 125 g ai/ha) | Pigweed plant response rating (pigweed [12]; [26]) | Pigweed plant response rating (pigweed [18]; [23]) | Plant response rating, Pigweed (pigweed [18]; [26]) | Crabgrass, Large plant response rating (large (Lg) crabgrass [21]; [26])
80: Plant response rating, Foxtail, Giant (giant foxtail [5]; [26]) | Plant response rating, Barnyardgrass (barnyardgrass [7]; [26]) | Barnyardgrass plant response rating (barnyardgrass [14]; [26]) | Velvetleaf plant response rating (velvetleaf [15]; [26])
70: Morningglory plant response rating (morningglory [2]; [23])
0: Plant response rating, Sedge, Umbrella (sedge, umbrella [1]; 31 g ai/ha) | Plant response rating, Ducksalad (ducksalad; 31 g ai/ha) | Plant response rating, Ducksalad (ducksalad; 62 g ai/ha) | Plant response rating, Ducksalad (ducksalad; 125 g ai/ha) | Plant response rating, Barnyardgrass (barnyardgrass [6]; 31 g ai/ha) | Plant response rating, Barnyardgrass (barnyardgrass [6]; 62 g ai/ha) | Plant response rating, Barnyardgrass (barnyardgrass [6]; 125 g ai/ha) | Plant response rating, Barnyardgrass (barnyardgrass [6]; 250 g ai/ha) | Plant response rating, Rice (rice [9]; 31 g ai/ha) | Plant response rating, Rice (rice [9]; 62 g ai/ha) | Plant response rating, Rice (rice [9]; 125 g ai/ha) | Corn plant response rating (0 to 100 scale) (corn [13]; 125 g ai/ha) | Plant response rating, Barnyardgrass (barnyardgrass [16]) | Wheat plant response rating (0 to 100 scale) (wheat [17]; 125 g ai/ha) | Wheat plant response rating (wheat [20]; [23]) | Plant response rating, Rice (rice [22])
50: Plant response rating, Sedge, Umbrella (sedge, umbrella [1]; 62 g ai/ha) | Plant response rating, Sedge, Umbrella (sedge, umbrella [1]; 125 g ai/ha) | Foxtail, Giant plant response rating (giant foxtail [5]; [23]) | Barnyardgrass plant response rating (barnyardgrass [7]; [23])
60: Crabgrass, Large plant response rating (large (Lg) crabgrass [19]; [23])
30: Morningglory plant response rating (morningglory [3]; [26])
95: Plant response rating, Ducksalad (Heteranthera limosa)
10: Morningglory plant response rating (0 to 100 scale) (morningglory [3]; 125 g ai/ha) | Corn plant response rating (corn [11]; [23]) | Corn plant response rating (corn [13]; [26]) | Wheat plant response rating (wheat [17]; [26])
85: Plant response rating, Sedge, Umbrella (sedge, umbrella [1]; 250 g ai/ha)
